Columns and labels:
[1] = test system: HO-1-N-1 (Oral Cavity Carcinoma); assay: combination Emax (second highest fraction inhibited in the dose matrix, 72 h); higher = more inhibition; extreme values may be limits of the assay
Method in brief: (§1)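 Cell lines in DMEM/F12 or RPMI with 10% FBS were plated in 1536-well plates, held 24 hours at 37°C, 5% CO2, then given two-drug dose matrices for 72 hours (DMSO typically 0.2%). Viability was read by CellTiter-Glo 2.0 luminescence and scaled as inhibition from 0 (vehicle wells) to 1 (blank wells). Combination Emax is the second-highest inhibition in the matrix; Bliss excess is observed combination effect minus expected EA + EB − EA·EB, EA and EB being single-agent effects.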

[2] = test system: HT-1376 (Bladder Carcinoma); assay: as above
Method in brief: as §1

[3] = test system: TE-15 (Esophageal Squamous Cell Carcinoma); assay: as above
Method in brief: as §1

[4] = test system: NCI-H82 (Small Cell Lung Carcinoma); assay: as above
Method in brief: as §1

[5] = test system: UM-UC-3 (Bladder Carcinoma); assay: as above
Method in brief: as §1

[6] = test system: ME-1 (Acute Myeloid Leukemia); assay: as above
Method in brief: as §1

[7] = test system: LS-180 (Colorectal Carcinoma); assay: as above
Method in brief: as §1

[8] = test system: Ramos-2G6-4C10 (Burkitt's Lymphoma); assay: as above
Method in brief: as §1

[9] = test system: Hs-578-T (Breast Carcinoma); assay: as above
Method in brief: as §1

[10] = test system: HCC-78 (Lung Adenocarcinoma); assay: as above
Method in brief: as §1

[11] = test system: NCI-H2085 (Non-Small Cell Lung Carcinoma); assay: as above
Method in brief: as §1

[12] = test system: NB10 (Neuroblastoma); assay: as above
Method in brief: as §1

[13] = test system: KURAMOCHI (Ovarian Carcinoma); assay: as above
Method in brief: as §1

[14] = test system: CAL-148 (Breast Carcinoma); assay: as above
Method in brief: as §1

[15] = test system: T98G (Glioblastoma); assay: as above
Method in brief: as §1

[16] = test system: Calu-3 (Lung Adenocarcinoma); assay: as above
Method in brief: as §1

[17] = test system: HO-1-N-1 (Oral Cavity Carcinoma); assay: Bliss excess, mean over the matrix (fraction); higher = more synergy
Method in brief: as §1

[18] = test system: HT-1376 (Bladder Carcinoma); assay: as above
Method in brief: as §1

[19] = test system: KELLY (Neuroblastoma); assay: as above
Method in brief: as §1

[20] = test system: KURAMOCHI (Ovarian Carcinoma); assay: as above
Method in brief: as §1
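Wherever Bliss excess, mean over the matrix is given: after 72 h of two-drug dosing.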

CC1(C)CCC(CN2CCN(c3ccc(C(=O)NS(=O)(=O)c4ccc(NCC5CCOCC5)c([N+](=O)[O-])c4)c(Oc4cnc5[nH]ccc5c4)c3)CC2)=C(c2ccc(Cl)cc2)C1 [Venetoclax] + CS(=O)(=O)CCNCc1ccc(-c2ccc3ncnc(Nc4ccc(OCc5cccc(F)c5)c(Cl)c4)c3c2)o1 [Lapatinib] (first compound max 1 µM, 7x7, partner max 10 µM)
combination Emax [1]: 0.668 | combination Emax [2]: 0.194 | combination Emax [3]: 0.742 | combination Emax [4]: 0.279 | combination Emax [5]: 0.104 | combination Emax [6]: 1 | combination Emax [7]: 0.298 | combination Emax [8]: 0.241 | combination Emax [9]: 0.554 | combination Emax [10]: 0.143 | combination Emax [11]: 0.244 | combination Emax [12]: 0.0761 | combination Emax [13]: 0.341 | combination Emax [14]: 0.235 | combination Emax [15]: 0.179 | combination Emax [16]: 0.74 | Bliss excess [17]: -0.0212 | Bliss excess [18]: -0.0404 | Bliss excess [19]: 0.0417 | Bliss excess [20]: -0.0415

From the supplement of paper PMC11061612
